In data set [1] the target is T1, OATP1B3 (Homo sapiens, UniProt Q9NPD5).
T1 sequence (Q9NPD5 1-702): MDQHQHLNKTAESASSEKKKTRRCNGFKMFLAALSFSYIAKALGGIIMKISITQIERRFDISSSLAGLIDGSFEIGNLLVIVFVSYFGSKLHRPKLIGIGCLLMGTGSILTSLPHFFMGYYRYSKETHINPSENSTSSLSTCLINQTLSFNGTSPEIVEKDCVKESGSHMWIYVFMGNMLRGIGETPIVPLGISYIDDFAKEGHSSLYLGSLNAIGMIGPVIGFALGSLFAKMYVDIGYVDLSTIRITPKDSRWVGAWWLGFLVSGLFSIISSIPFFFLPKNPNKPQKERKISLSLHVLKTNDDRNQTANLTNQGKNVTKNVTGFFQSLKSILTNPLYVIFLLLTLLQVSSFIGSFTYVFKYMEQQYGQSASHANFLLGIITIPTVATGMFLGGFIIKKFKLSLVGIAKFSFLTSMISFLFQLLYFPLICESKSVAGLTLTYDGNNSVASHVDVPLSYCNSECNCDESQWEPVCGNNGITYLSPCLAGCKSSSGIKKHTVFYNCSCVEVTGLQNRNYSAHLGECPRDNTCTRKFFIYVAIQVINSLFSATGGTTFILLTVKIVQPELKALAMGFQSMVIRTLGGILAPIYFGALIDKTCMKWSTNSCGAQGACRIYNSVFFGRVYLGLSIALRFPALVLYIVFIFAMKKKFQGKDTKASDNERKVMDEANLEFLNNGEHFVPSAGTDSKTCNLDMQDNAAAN
Kind of data set: Pyranine uptake inhibition in A431 cells overexpressing OATP1B3. On the procedure:
(§1) Compounds with measured bioactivities (Km, IC50, Ki, and EC50 bioactivity end points or percentage inhibition values) on OATP1B1 (n = 440 compounds), OATP1B3 (n = 936 compounds), or OATP2B1 (n = 173 compounds) were collected from the open domain by utilizing a KNIME workflow, which collects data from five independent data sources as described in Tuerkova et al.[15] […] IC50 values were calculated based on transport inhibition measurements (see below) by Hill1 fit, using the Origin Pro8.6 software (OriginLab Corporation, Northampton, MA, US).
(§2) 20 mM stocks in DMSO were stored for further usage at −20 °C. A431 cells overexpressing OATPs, OATP1B1, OATP1B3, or OATP2B1 or mock transfected controls were generated previously.[60] A431 cells were maintained in DMEM medium (Thermo Fischer Scientific, Waltham, MA, US) supplemented with 10% fetal bovine serum, 2 mM L-glutamine, 100 units/mL penicillin, and 100 μg/mL streptomycin at 37 °C with 5% CO2. […] The uptake of pyranine was measured on microplates based on the method developed by us previously.[60],[61]
(§3) Briefly, 1 day prior to the uptake measurement cells (8 × 10^4 cells/well in 200 μL DMEM) were seeded on 96-well plates. On the following day, the medium was removed, and the cells were washed three times with 200 μL of phosphate-buffered saline (PBS, pH 7.4) and preincubated with 50 μL of uptake buffer (125 mM NaCl, 4.8 mM KCl, 1.2 mM CaCl2, 1.2 mM KH2PO4, 12 mM MgSO4, 25 mM MES (2-(N-morpholino)ethanesulfonic acid, and 5.6 mM glucose, pH 5.5) with or without increasing concentrations of the tested compounds. The reaction was started by the addition of 50 μL of uptake buffer containing pyranine in a final concentration of 10 μM (OATP1B1) or 20 μM (OATP1B3 and OATP2B1). Cells were incubated with the dye at 37 °C for 15 min (OATP1B1 and OATP2B1) or 30 min (OATP1B3), after which the supernatant was removed, and the cells were washed three times with 200 μL of ice-cold PBS. Fluorescence (in 200 μL of PBS/well) was determined in an Enspire plate reader (PerkinElmer, Waltham, MA, Ex/Em = 403/517 nm). OATP-dependent transport was calculated by extracting fluorescence measured in mock transfected cells. Transport activity was calculated based on the fluorescence signal in the absence (100%) of the tested compounds. Experiments were repeated at least three times on cells deriving from different passages.
(§4) IC50 values were calculated by Hill1 fit, using the (OriginLab Corporation, Northampton, MA, US).

Data set [2] concerns the target T2, OATP2B1 (Homo sapiens, UniProt O94956).
T2 sequence (O94956 1-709): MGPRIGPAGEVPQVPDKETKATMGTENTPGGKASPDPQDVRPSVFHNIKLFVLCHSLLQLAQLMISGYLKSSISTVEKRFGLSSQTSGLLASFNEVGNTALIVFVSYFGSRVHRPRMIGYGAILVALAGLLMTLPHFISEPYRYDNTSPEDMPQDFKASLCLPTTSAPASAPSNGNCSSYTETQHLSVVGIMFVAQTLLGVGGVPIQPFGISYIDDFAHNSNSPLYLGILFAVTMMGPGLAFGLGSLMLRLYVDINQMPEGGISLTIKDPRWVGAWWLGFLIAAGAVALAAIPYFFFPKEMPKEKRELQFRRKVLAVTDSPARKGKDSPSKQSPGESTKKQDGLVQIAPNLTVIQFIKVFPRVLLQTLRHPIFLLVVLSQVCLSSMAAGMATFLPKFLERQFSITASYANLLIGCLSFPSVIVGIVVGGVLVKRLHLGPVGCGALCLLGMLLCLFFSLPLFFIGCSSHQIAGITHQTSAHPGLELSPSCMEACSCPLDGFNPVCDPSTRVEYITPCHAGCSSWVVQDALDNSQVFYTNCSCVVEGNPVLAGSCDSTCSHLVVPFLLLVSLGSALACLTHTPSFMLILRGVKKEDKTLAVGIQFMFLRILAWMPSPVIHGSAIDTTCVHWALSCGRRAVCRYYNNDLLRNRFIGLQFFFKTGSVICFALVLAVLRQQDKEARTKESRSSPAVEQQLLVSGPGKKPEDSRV
Kind of data set: Pyranine uptake inhibition in A431 cells overexpressing OATP2B1. As to conditions: for selectivity for OATP2B1 (in words): vs OATP1B1 and OATP1B3; for fold decrease in activity compared with compound 11: 3-hydroxy and 3-methoxy analogs vs 3-benzyloxy compound 11. On the procedure: as §1, §2, §3, §4

Data set [3] concerns the target T3, OATP1B1 (Homo sapiens, UniProt Q9Y6L6).
T3 sequence (Q9Y6L6 1-691): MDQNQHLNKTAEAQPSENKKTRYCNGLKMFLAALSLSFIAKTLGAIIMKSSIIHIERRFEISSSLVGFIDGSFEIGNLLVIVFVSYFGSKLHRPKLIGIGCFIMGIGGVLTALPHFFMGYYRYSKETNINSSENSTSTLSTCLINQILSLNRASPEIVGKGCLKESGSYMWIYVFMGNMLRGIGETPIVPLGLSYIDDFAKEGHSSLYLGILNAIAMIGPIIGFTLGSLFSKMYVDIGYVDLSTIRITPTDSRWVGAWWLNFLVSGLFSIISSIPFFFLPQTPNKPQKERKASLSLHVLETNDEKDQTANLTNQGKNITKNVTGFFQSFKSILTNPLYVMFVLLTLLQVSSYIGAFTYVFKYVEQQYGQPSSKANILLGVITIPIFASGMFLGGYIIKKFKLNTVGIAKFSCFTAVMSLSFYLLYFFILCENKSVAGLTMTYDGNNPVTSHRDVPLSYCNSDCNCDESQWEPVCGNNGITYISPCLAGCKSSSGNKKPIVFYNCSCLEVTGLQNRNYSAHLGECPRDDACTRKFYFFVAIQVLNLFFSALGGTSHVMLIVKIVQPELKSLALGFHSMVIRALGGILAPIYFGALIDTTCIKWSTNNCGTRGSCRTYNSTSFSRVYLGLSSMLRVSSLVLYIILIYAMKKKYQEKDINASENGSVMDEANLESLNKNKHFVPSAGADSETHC
The data set is described as follows: Pyranine uptake inhibition in A431 cells overexpressing OATP1B1. As to conditions: for activity on OATP1B1 and OATP1B3 (in words): statement covers both OATP1B1 and OATP1B3. As for the experimental part:
IC50 values were calculated based on transport inhibition measurements (see below) by Hill1 fit, using the Origin Pro8.6 software (OriginLab Corporation, Northampton, MA, US).
as §2
Briefly, 1 day prior to the uptake measurement cells (8 × 10^4 cells/well in 200 μL DMEM) were seeded on 96-well plates. […] OATP-dependent transport was calculated by extracting fluorescence measured in mock transfected cells. Transport activity was calculated based on the fluorescence signal in the absence (100%) of the tested compounds. Experiments were repeated at least three times on cells deriving from different passages.
as §4

In the case of `C[C@@]12CCC3c4ccc(O)cc4CCC3C1CCC2=O` (stereo partly drawn) [Compound 1, 13α-estrone], the IC50 in data set [1] and in data set [2] was over 50 µM throughout.

For the molecule `COc1ccc2c(c1)CCC1C2CC[C@@]2(C)C(=O)CCC12` (some centres unmarked) [Compound 2], the IC50 in data set [3] was over 50 µM; in data set [1], over 50 µM; in data set [2], 5.41 µM.

Take `C[C@@]12CCC3c4ccc(OCc5ccccc5)cc4CCC3C1CCC2=O` (some centres unmarked) [Compound 3]: the IC50 was over 50 µM in data set [3], over 50 µM in data set [1] and 7.17 µM in data set [2].

On to `COc1cc2c(cc1Br)C1CC[C@@]3(C)C(=O)CCC3C1CC2` (some centres unmarked) [Compound 4], for which the IC50 was over 50 µM in data set [3], over 50 µM in data set [1] and 8.39 µM in data set [2]. Further, in data set [2] (OATP2B1), the “fold decrease in affinity compared to hydroxyl derivative (compound 5)” value was found to be 7 fold. Moreover, the “selectivity for OATP2B1 (in words)” value in data set [2] is given as “selective”.

With `C[C@@]12CCC3c4cc(Br)c(O)cc4CCC3C1CCC2=O` (some centres unmarked) [Compound 5], the IC50 is over 50 µM in data set [3], over 50 µM in data set [1] and 1.19 µM in data set [2]. Besides, the “selectivity for OATP2B1 (in words)” value in data set [2] is “selective”.

For `C[C@@]12CCC3c4ccc(O)c(Br)c4CCC3C1CCC2=O` (some centres unmarked) [Compound 6], the figures for the IC50 in data set [3], in data set [1] and in data set [2] were 4.07 µM, 9.2 µM and 2.97 µM, respectively. Besides, in data set [3], the “activity on OATP1B1 and OATP1B3 (in words)” value (“activity … (in words)” below) was “weak to borderline inhibitory activity”.

For `C[C@@]12CCC3c4cc(I)c(O)cc4CCC3C1CCC2=O` (some centres unmarked) [Compound 7], the values for the IC50 in data set [3], in data set [1] and in data set [2] were 22.5 µM, 18.2 µM and 0.6 µM, respectively. In addition, the “selectivity for OATP2B1 (in words)” value in data set [2] was “selective”.

For `C[C@@]12CCC3c4ccc(O)c(I)c4CCC3C1CCC2=O` (some centres unmarked) [Compound 8], the results for the 50% inhibitory concentration (IC50) in data set [3], in data set [1] and in data set [2] were 9.28 µM, 8.28 µM and 3.58 µM, respectively. The “activity … (in words)” value in data set [3] was “weak to borderline inhibitory activity”.

As to `C[C@@]12CCC3c4cc(Cl)c(O)cc4CCC3C1CCC2=O` (some centres unmarked) [Compound 9], the IC50 is over 50 µM in data set [3], over 50 µM in data set [1] and 0.9 µM in data set [2]. Moreover, the “selectivity for OATP2B1 (in words)” value in data set [2] was “selective”.

For the molecule `C[C@@]12CCC3c4ccc(O)c(Cl)c4CCC3C1CCC2=O` (some centres unmarked) [Compound 10], the IC50 in data set [3] was 25 µM; in data set [1] it was over 50 µM; in data set [2], 10.5 µM. In addition, the IC50 at 15 min in data set [2] (human, pH 5.5) was determined as 10.5 µM.

`CCOP(=O)(OCC)c1cc2c(cc1OCc1ccccc1)CCC1C2CC[C@@]2(C)C(=O)CCC12` (some centres unmarked) [Compound 11]: the values for the IC50 in data set [3], in data set [1] and in data set [2] were 0.76 µM, 2.18 µM and 0.18 µM, respectively. Besides, in data set [3], the “activity … (in words)” value is “highly active”.

`CCOP(=O)(OCC)c1c(OCc2ccccc2)ccc2c1CCC1C2CC[C@@]2(C)C(=O)CCC12` (some centres unmarked) [Compound 12]: the results for the IC50 in data set [3], in data set [1] and in data set [2] were 3.22 µM, 2.49 µM and 0.75 µM, respectively. For the same molecule, the “activity … (in words)” value in data set [3] is “highly active”.

For `CCOP(=O)(OCC)c1cc2c(cc1O)CCC1C2CC[C@@]2(C)C(=O)CCC12` (some centres unmarked) [Compound 13], the IC50 stood at 3.79 µM in data set [3], 5.24 µM in data set [1] and 3.18 µM in data set [2]. Further, the “activity … (in words)” value in data set [3] is reported as “moderate activity”. In addition, in data set [2] (OATP2B1), the “fold decrease in activity compared with compound 11” value is given as “approximately 17 fold”.

Regarding `CCOP(=O)(OCC)c1c(O)ccc2c1CCC1C2CC[C@@]2(C)C(=O)CCC12` (some centres unmarked) [Compound 14], the IC50 was over 50 µM in data set [3], over 50 µM in data set [1] and 10.2 µM in data set [2].

For the molecule `CCOP(=O)(OCC)c1cc2c(cc1OC)CCC1C2CC[C@@]2(C)C(=O)CCC12` (some centres unmarked) [Compound 15], the IC50 in data set [3] was 10.1 µM; in data set [1] it was 9.5 µM; in data set [2], 2.96 µM. Also, the “activity … (in words)” value in data set [3] was “rather inactive”. Moreover, the “fold decrease in activity compared with compound 11” value in data set [2] (OATP2B1) is recorded as “approximately 17 fold”.

In the case of `CCOP(=O)(OCC)c1c(OC)ccc2c1CCC1C2CC[C@@]2(C)C(=O)CCC12` (some centres unmarked) [Compound 16], the IC50 is 32.4 µM in data set [3], 11.8 µM in data set [1] and 2.74 µM in data set [2]. Further, in data set [3], the “activity … (in words)” value is “rather inactive”.

Broadly, the IC50 is the concentration that gives 50% inhibition. Low readings indicate greater potency, high ones weaker potency.

These data come from publication PMC8243326, “Data-Driven Ensemble Docking to Map Molecular Interactions of Steroid Analogs with Hepatic Organic Anion Transporting Polypeptides” (Journal of Chemical Information and Modeling, 2021).
